In the NIST ThermoML archive (doi:10.1021/je050112b):
Values joined by “and” are separate entries in the source; they are usually repeats but may differ in a detail not shown here. Identical values can stand only once.

[I][Sm][I] [samarium diiodide]
Liquid
Conditions | vapor or sublimation pressure
1048 K | 0.00013 kPa
1051 K | 0.00016 kPa
1064 K | 0.00021 kPa
1065 K | 0.00019 kPa
1068 K | 0.00024 kPa
1069 K | 0.00024 kPa
1072 K | 0.00021 kPa
1074 K | 0.00027 kPa
1076 K | 0.00027 kPa and 0.00024 kPa
1078 K | 0.00029 kPa
1080 K | 0.0004 kPa
1082 K | 0.00032 kPa
1085 K | 0.00035 kPa
1086 K | 0.00035 kPa
1088 K | 0.00048 kPa
1089 K | 0.00035 kPa
1092 K | 0.00043 kPa and 0.00035 kPa
1093 K | 0.00043 kPa
1094 K | 0.00043 kPa
1096 K | 0.00048 kPa
1098 K | 0.00045 kPa
1100 K | 0.00045 kPa
1101 K | 0.00053 kPa
1102 K | 0.00075 kPa
1103 K | 0.00056 kPa
1104 K | 0.00059 kPa
1106 K | 0.00056 kPa
1108 K | 0.00064 kPa and 0.00051 kPa
1110 K | 0.00061 kPa
1111 K | 0.00064 kPa
1113 K | 0.00064 kPa
1114 K | 0.00077 kPa
1118 K | 0.00069 kPa and 0.00075 kPa and 0.00064 kPa
1120 K | 0.0008 kPa
1121 K | 0.00117 kPa
1124 K | 0.00093 kPa and 0.00096 kPa and 0.00085 kPa
1125 K | 0.00085 kPa
1126 K | 0.00091 kPa
1128 K | 0.00139 kPa and 0.00085 kPa
1129 K | 0.00107 kPa and 0.00096 kPa
1133 K | 0.00123 kPa and 0.00104 kPa
1134 K | 0.00107 kPa
1135 K | 0.00115 kPa
1136 K | 0.00134 kPa
1138 K | 0.00112 kPa
1139 K | 0.00123 kPa
1140 K | 0.00176 kPa
1141 K | 0.00128 kPa
1142 K | 0.00155 kPa and 0.00128 kPa
1144 K | 0.00144 kPa
1145 K | 0.0016 kPa and 0.00166 kPa
1148 K | 0.00144 kPa
1150 K | 0.0016 kPa
1151 K | 0.0016 kPa
1152 K | 0.00198 kPa
1153 K | 0.00182 kPa
1154 K | 0.00203 kPa
1155 K | 0.00214 kPa
1158 K | 0.00198 kPa and 0.00192 kPa and 0.00187 kPa
1159 K | 0.00262 kPa and 0.00203 kPa
1160 K | 0.0023 kPa
1161 K | 0.0024 kPa and 0.00219 kPa
1162 K | 0.00208 kPa and 0.00203 kPa
1164 K | 0.00262 kPa
1167 K | 0.00246 kPa
1168 K | 0.0024 kPa
1169 K | 0.00278 kPa and 0.00288 kPa
1170 K | 0.00272 kPa
1171 K | 0.00347 kPa and 0.00251 kPa and 0.00246 kPa
1173 K | 0.0031 kPa
1177 K | 0.00331 kPa [middle of 4 runs]
1178 K | 0.00326 kPa
1179 K | 0.00288 kPa and 0.00358 kPa and 0.00294 kPa
1181 K | 0.00368 kPa
1183 K | 0.00449 kPa
1185 K | 0.00363 kPa
1186 K | 0.00368 kPa [middle of 5 runs]
1187 K | 0.00401 kPa
1188 K | 0.00427 kPa
1189 K | 0.00336 kPa and 0.00331 kPa
1195 K | 0.00443 kPa
1196 K | 0.00507 kPa

[I][Sm]([I])[I] [samarium triiodide]
Crystal
Conditions | vapor or sublimation pressure
789 K | 0.00017 kPa
797 K | 0.00024 kPa
799 K | 0.0002 kPa
801 K | 0.0002 kPa
805 K | 0.00034 kPa
807 K | 0.00029 kPa
808 K | 0.00025 kPa
814 K | 0.00051 kPa
815 K | 0.00034 kPa
819 K | 0.00051 kPa
823 K | 0.00071 kPa and 0.00047 kPa
824 K | 0.00064 kPa
832 K | 0.00067 kPa
833 K | 0.00088 kPa and 0.00101 kPa
840 K | 0.00111 kPa and 0.00098 kPa
843 K | 0.00145 kPa
849 K | 0.00148 kPa and 0.00135 kPa
852 K | 0.00212 kPa
856 K | 0.00189 kPa
857 K | 0.00168 kPa
863 K | 0.00236 kPa
867 K | 0.00236 kPa
868 K | 0.00276 kPa
876 K | 0.00307 kPa
